Results taken from patent publication US8343979B2, “Use of alkanoyl L-carnitine for the treatment of erectile dysfunction” (Sigma-Tau Industrie Farmaceutiche Riunite S.p.A., priority 2001, dated 2013).

What was measured:
[1] = test system: erectile dysfunction, diabetics or nondiabetics patients; experiment: preliminary experimental data on propionyl L-carnitine in erectile dysfunction; type: in vivo, human; settings: not previously treated with sildenafil
[2] = test system: diabetics patients suffering from E.D.; experiment: clinical trial of propionyl L-carnitine plus sildenafil in sildenafil non-responders (dynamic colour Doppler ultrasonography, IIEF); type: in vivo, human; settings: 2 g/day propionyl L-carnitine orally daily in combination with 50 mg sildenafil orally twice a week; diabetic E.D. patients not responder to sildenafil alone; after 3 and 6 months
Description: In this trial, 24 diabetics patients suffering from E.D. which were not responder to the treatment with sildenafil alone were enrolled.
2 g/day (1 g tablet twice a day) of propionyl L-carnitine were orally administered daily to the patients, and 50 mg sildenafil orally, twice a week.
In this trial, 30 diabetics patients suffering from E.D. which were not responder to the treatment with sildenafil alone were enrolled.
2 g/day (1 g tablet twice a day) of propionyl L-carnitine, were orally administered daily to the patients, and 50 mg sildenafil orally, twice a week.

With `CCC(=O)O[C@H](CC(=O)[O-])C[N+](C)(C)C` [propionyl L-carnitine] the “usefulness for treating the erectile dysfunction” value [1] was “useful for treating the erectile dysfunction”, the “arterial flux by dynamic colour Doppler ultrasonography” value [2] was “improvement of the arterial flux” and the “satisfactory clinical response evaluated with IIEF, share of treated patients” value [2] was 60%.
